Assay results taken from patent publication US4761405A, “Antagonists of specific excitatory amino acid neurotransmitter receptors having increased potency” (priority 1987, dated 1988).
“And” between values parts separate entries of the source, which are not always exact repeats. Equal values may be shown once. “Also recorded” adds a separate entry of the source. Read-outs that look alike come from different tables or passages of the source.

Experiments:
[1] = system: KA receptors (rat forebrain membranes); test: In vitro receptor binding: inhibition of specific [3H]KA binding; conditions: for Percent inhibition of specific ligand binding, [3H]KA: 50 μM compound, 2 nM ligand, pH 7.4, 90 min, 2° C., mean ± S.E.M. of three determinations
Experimental: (§1) The potency of the compound described in example IV to inhibit the specific binding of various EAA ligands to rat forebrain membranes was examined using standard in vitro binding techniques. Specifically, example IV was evaluated for potency to inhibit the specific binding of [^3 H]kainic acid ([^3 H]KA),[^3 H]RS-α-amino-3-hydroxy-5-methyl-4-isoxazole propionic acid([^3 H]AMPA) and [^3 H]3-(2-carboxypiperazin-4-yl) propyl-1-phosphonic acid([^3 H]CPP) to KA, QUIS and NMDA receptors, respectively.
(§2) Methods were as follows: rat forebrain membranes were prepared as described by Enna and Synder [Mol. Pharmacology, 13, 422-453 (1977)] and the "buffy coat" preparation was washed three additional times by centrifugation (45,000 g; 10 min; 4° C.) with intermittent resuspensions (20 vol; w/v) in fresh buffer (Tris HCl; 0.05M; pH 7.4; 23° C.). Following the final wash, pellets were stored frozen (-20° C.) until used.
(§3) On the day of assay, pellets were thawed to room temperature, resuspended in buffer (Tris HCl; 0.05 M; various pH; 23° C.) and washed three additional times by centrifugation as described in the preceeding paragraph. For assay, the washed tissue was resuspended in buffer at a concentration of 10 mg/mL. All procedures were performed using triplicate incubations in a final volume of 2 mL which consisted of the tissue suspension (1 mL), ligand, the compound(s) of interest and 1 mL of buffer. In every instance, Glu (10^-3 M) was used to determine nonspecific binding. Assays were terminated by centrifugation (45,000 g; 10 min; 4° C.), the pellet was washed rapidly and superficially with 2×2.5 mL of ice-cold buffer and dissolved in 1 mL of Protosol® (New England Nuclear, Boston, Mass.). Following the addition of 6 mL of Econfluor® (New England Nuclear, Boston, Mass.) radioactivity was determined using conventional liquid scintillation spectrophotometry.
Specific binding of [^3 H]KA (S.A.=60 Ci/mmol, New England Nuclear, Boston, Mass.) was examined according to the method of London and Coyl [(Mol. Pharmacol., 15, 492-505 (1979)] using Tris HCl buffer (pH 7.4). Incubations were conducted for 90 min at 2° C. using a final ligand concentration of 2 nM.
(§4) All assays were performed on three separate occassions. Appropriate reference compounds were evaluated in each assay and experiment using parallel incubations. All compounds were examined at a single concentration (50 uM) and activity was expressed as the percent inhibition of specific binding of each ligand.
(§5) Method(s) have been described in the text. Values shown are the means ±S.E.M. of three separate determinations performed using triplicate incubations and are expressed as the percent inhibition of specifically bound ligand. All drugs were tested at a single concentration of 50 μM.

[2] = system: NMDA receptors (rat forebrain membranes); test: In vitro receptor binding: inhibition of specific [3H]CPP binding; conditions: for Percent inhibition of specific ligand binding, [3H]CPP: 50 μM compound, 8 nM ligand, pH 7.4, 30 min, 23° C., mean ± S.E.M. of three determinations; for Inhibition of [3H]CPP binding / interaction with NMDA-type receptors, in words: 50 μM
Experimental: as §1, §2, §3
Specific binding of [^ 3H]CPP (S.A.=27 Ci/mmol, New England Nuclear, Boston, Mass.) was examined using a modification of the method of Murphy et al., [(J. Pharmacol. Exp. therap., (in press)] using Tris HCl buffer (pH 7.4). Incubations were conducted for 30 min at 23° C. using a final ligand concentration of 8 nM.
as §4, §5

[3] = system: QUIS receptors (rat forebrain membranes); test: In vitro receptor binding: inhibition of specific [3H]AMPA binding; conditions: for Percent inhibition of specific ligand binding, [3H]AMPA: 50 μM compound, 4 nM ligand, pH 6.9, 100 mM KSCN, 60 min, 4° C., mean ± S.E.M. of three determinations; for Inhibition of [3H]AMPA binding, in words: 50 μM
Experimental: as §1, §2, §3
Specific [^3 H]AMPA (S.A.=27.5 Ci/mmol, New England Nuclear, Boston, Mass.) binding was examined according to the method of Murphy et al., [(Soc. Neurosci. Abs., 11, 109, (1985)] using Tris HCl buffer (pH 6.9) supplemented with 100 mM KSCN. Incubations were conducted for 60 min at 4° C. using a final ligand concentration of 4 nM.
as §4, §5

[4] = system: cultured rat hippocampal neurones; conditions: cited from earlier work
[5] = system: pentylenetetrazol (PTZ)-induced seizures; test: Protection against pentylenetetrazol (PTZ)-induced seizures; format: in vivo, male CF-1 mice
Experimental: The anticonvulsant properties of example IV and of the reference compound DL(±)AP7 against seizures induced by subcutaneous (s.c.) injection of pentylenetetrazol (PTZ) were evaluated using mice.
For testing, PTZ was dissolved in saline (0.9%; w/v) and administered to male CF-1 mice (Charles Rivers: 20-25 g) at a dose of 90 mg/kg (s.c.) fifteen minutes (ICV) or thirty minutes (IP) after the administration of the test compounds. Example IV and the reference compound were dissolved in sline and administered in a final volume of 5 μL (ICV) or 200 μL (IP). […] Presence of seizures was defined as one or more episodes of clonic activity having a duration of five seconds or greater. Following preliminary dose-ranging studies, dose-response curves were generated using at least five different doses of each compound with eight animals at each dose. The dose of drug required to protect fifty percent (ED50) of the test animals from PTZ-induced seizures was calculated using log-logit analysis. Ninety-five percent confidence intervals (CL95) were calculated using the method of Litchfield and Wilcoxon [J. Pharmacol. Exp. Therap., 96, 99-113 (1949)].
(§6) Method(s) have been described in the text. Where ED50 's are shown,
(§7) *Where ninetyfive percent confidence limits are not shown, the values

[6] = system: maximal electroshock (MES)-induced seizures; test: Protection against maximal electroshock (MES)-induced seizures; format: in vivo, male CF-1 mice; conditions: for ED50: Mus musculus, 0.5 h, ip, 30 min prior; for ED50 / ED50, maximal electroshock, icv: 50 mA, 0.2 s; for ED50, maximal electroshock, icv: 15 min prior
Experimental: The anticonvulsant properties of example IV and of the reference compound DL(±)AP7 against seizures induced by maximal electroshock (MES) were evaluated using mice.
For testing, electrodes were clipped to the ears of male CF-1 mice (20-25 g; Charles Rivers) and a current of 50 mA was delivered for 0.2 seconds to produce seizures. Drugs were dissolved in saline (0.9%; w/v) and administered fifteen minutes (ICV) or thirty minutes (IP) prior to testing. Injection protocols and group size were identicl to those described in example VI. […] Seizures were scored as being present or absent. Data was calculated as described in example VI.
as §6, §7

[7] = icv, 15 min before PTZ 90 mg/kg s.c.
[8] = ">" = maximum dose tested, no animals protected, read-out: ED50, maximal electroshock, ip (mg/kg)
[9] = ">" = maximum dose tested, no animals protected, read-out: ED50, maximal electroshock, ip (mmol/kg)
[10] = ">" = maximum dose tested, no animals protected
[11] = Mus musculus, ip, 30 min before PTZ 90 mg/kg s.c.; ">" = maximum dose tested, no animals protected

| Molecule | Percent inhibition of specific ligand binding, [3H]KA [1] | Percent inhibition of specific ligand binding, [3H]CPP [2] | Percent inhibition of specific ligand binding, [3H]AMPA [3] | Inhibition of [3H]CPP binding / interaction with NMDA-type receptors, in words [2] | Inhibition of [3H]AMPA binding, in words [3] | ED50, pentylenetetrazol, icv (nmoles) [5, 7] | ED50, pentylenetetrazol, icv (ug) [5, 7] | ED50, maximal electroshock, icv [6, 10] | also measured |
| --- | --- | --- | --- | --- | --- | --- | --- | --- | --- |
| N[C@H](CCCCCP(=O)(O)O)C(=O)O [D(-)AP7, D(-)-2-amino-7-phosphonoheptanoic acid] | 17 ± 2% | 100 ± 0% | 7 ± 5% | – | – | – | – | – | – |
| N[C@H](CCCP(=O)(O)O)C(=O)O [D(-)AP5, D(-)-2-amino-5-phosphonopentanoic acid] | 22 ± 1% | 95 ± 4% | 3 ± 2% | – | – | – | – | – | – |
| δ-D-glutamyl glycine | – | – | – | – | – | – | – | – | Effect on toxicity of exogenously applied Glu and Asp ([4]; exogenously applied Glu and Asp): blocking the toxicity of exogenously applied Glu and Asp; Protection of neurones from degeneration ([4]; oxygen depletion): protect cultured rat hippocampal neurones from degeneration |
| C=C(C)[C@H]1CN[C@H](C(=O)O)[C@H]1CC(=O)O [KA, kainic acid] | 100 ± 0% | 3 ± 2% | 56 ± 5% | without appreciable activity | moderate activity | – | – | – | – |
| NC(CCCCCP(=O)(O)O)C(=O)O (racemic) [DL(±)AP7] | – | – | – | – | – | 6.8 nmol | 1.37 µg | 6.8 µg and 7.3 µg | ED50 ([5]; Mus musculus; ip, 30 min before PTZ 90 mg/kg s.c.): 780 to 880 µmol/kg; ED50 ([5]; Mus musculus; ip, 30 min before PTZ 90 mg/kg s.c.; ">" = maximum dose tested, no animals protected): 176 to 199 mg/kg; Attenuation of MES-induced seizure activity, in words ([6]; ICV): dose-dependent protection; ED50 [6, 8]: 127 to 170 mg/kg; ED50 [6, 9]: 0.56 to 0.76 mmol/kg; ED50, maximal electroshock, icv [6]: 29 nmol and 34 nmol |
| NC(CC1CCCCC1CCP(=O)(O)O)C(=O)O (stereo not shown) [Example IV, 2-amino-4.5-(1,2-cyclohexyl)-7-phosphonoheptanoic acid] | 9 ± 4% | 33 ± 9% | 1 ± 1% | interacts, albeit with moderate affinity, in a highly specific manner with NMDA-type receptors | without appreciable activity | 0.14 nmol and 0.19 nmol | 0.04 µg and 0.06 µg | 90 µg | Inhibition of [3H]KA binding, in words ([1]; 50 μM): least active; fold more potent than DL(±)AP7 to prevent PTZ-induced seizures, ICV ([5]; ICV, vs DL(±)AP7): 30-40 fold; fold more potent than DL(±)AP7 to prevent PTZ-induced seizures, IP ([5]; IP, vs DL(±)AP7): approximately 2 fold; ED50 ([5]; Mus musculus, ip, 30 min before PTZ 90 mg/kg s.c.): 310 µmol/kg; ED50 [5, 11]: 90 mg/kg; ED50, pentylenetetrazol, ip ([5]; ip, 30 min before PTZ 90 mg/kg s.c.): 0.47 mmol/kg; ED50, pentylenetetrazol, ip ([5]; ip, 30 min before PTZ 90 mg/kg s.c.; ">" = maximum dose tested, no animals protected): 134 mg/kg; Anticonvulsant activity in PTZ seizure model, in words ([5]; mice): potent, novel and systemically active anticonvulsant agent; Anticonvulsant activity in PTZ seizure model, in words ([5]; mice; listed as 3-(2-phosphonoethyl)cyclohexyl-2-aminopropionic acid): provide protection in pentylenetetrazol (PTZ) induced seizures; Inhibition of [3H]CPP binding / interaction with NMDA-type receptors, in words ([2]; listed as 3-(2-phosphonoethyl)cyclohexyl-2-aminopropionic acid): high affinity and selectivity; Attenuation of MES-induced seizure activity, in words ([6]; ICV): moderately potent; also recorded: relative lack of potency; fold less potent as an anticonvulsant in MES compared to its activity in the PTZ seizure model ([6]; ICV, MES vs PTZ): 360 fold; fold less potent than DL(±)AP7 as an anticonvulsant in the MES test ([6]; ICV, vs DL(±)AP7): approximately 11 fold; Prevention of MES-induced seizures on systemic administration ([6]; IP, up to 350 mg/kg, n=6): failed to prevent MES-induced seizures in any animal; ED50 [6, 8]: > 350 mg/kg; ED50 [6, 9]: > 1.2 mmol/kg; ED50, maximal electroshock, icv [6]: 314 nmol |
| NC(CCC1CCCCC1CP(=O)(O)O)C(=O)O (stereo not shown) [4-(2-phosphonomethyl)cyclohexyl-2-aminobutyric acid] | – | – | – | high affinity and selectivity | – | – | – | – | Anticonvulsant activity in PTZ seizure model, in words ([5]; mice): provide protection in pentylenetetrazol (PTZ) induced seizures |
| NC(Cc1ccccc1CCP(=O)(O)O)C(=O)O (stereo not shown) [III, 2-Amino-4,5-benzo-7-phosphonoheptanoic acid] | – | – | – | – | – | 44 nmol | 3.2 µg | > 100 µg | ED50 [5, 11]: > 350 mg/kg |
| Cc1onc(O)c1CC(N)C(=O)O (racemic) [AMPA, RS-α-amino-3-hydroxy-5-methyl-4-isoxazole propionic acid] | 64 ± 4% | 7 ± 4% | 100 ± 0% | without appreciable activity | most potent inhibitors of binding | – | – | – | – |
